Test results from article PMC8970883, “Simultaneous Determination of Seven Phenolic Acids, Two Flavonoids, and Tussilagone in Rat Plasma after Administration of Farfarae Flos Extract by LC–MS/MS” (Evidence-based Complementary and Alternative Medicine : eCAM, 2022).
Read-outs that look alike come from different tables or passages of the source.

Experiments:
[1] = Pharmacokinetic study in rats after intragastric administration of Farfarae Flos extract (plasma, LC-MS/MS); format: in vivo; conditions: for Cmax / Tmax / half-life / MRT last / MRT inf: male; for Cmax: rat, plasma, po; for MRT last: read-out: MRT(0–24h); for MRT inf: read-out: MRT(0–∞)
From the text: A high-performance liquid chromatography instrument was used to separate three types of compounds (Agilent 1200 series, USA). The HPLC instrument is composed of four parts; a G1322A degasser, G1312A Bin Pump, G1367B auto-sampler, and G1316A thermostatic column compartment. Three types of compounds and three internal standards (ISs) were separated on an Eclipse Plus C18 (4.6 × 100 mm, 1.8 μm). The mobile phase was composed of formic acid aqueous solution (A) and formic acid methanol solution (B). The concentration of formic acid in both A and B solution was 0.1% (v/v). The gradient elution was as follows. The proportion of 10% B changes to 40% from 0 min to 3mins. 40% B changes to 90% from 16 to 18 min. B is maintained at 100% from 19 to 28 min. The flow rate, sample injected volume, and column temperature was 0.35 mL·min^−1, 10 μL, and 35°C, respectively.
Quantitative analysis of all samples was performed on Sciex API 3200 with an electrospray ionization (ESI) source. Analyst 1.6.2 workstation for instrument operation, data management, and data analysis were employed to analyze and process data (AB, Sciex). Ten analyzed compounds and three ISs were optimized during multiple reactions monitoring (MRM). […] MRM parameters of CCLA were set at 353.1-191.0. […] MRM parameters of IAB were set as 515.3-353.2 and MRM parameters of IAA were set at 515.2-353.0. MRM parameters of IAC and tussilagone were set as 515.3-352.9, 391.4-217.4, respectively.
Twenty male rats (4 months old, weight 240 ± 20 g) were obtained commercially from Vital River Laboratory Animal Company (Beijing, China). Before the pharmacokinetic experiments, they were free to eat food and drink water for one week for adapting to the environment when the dark light cycle was 12 hours, while the temperature was maintained at 25 ± 5°C. The animal experiments were guided and strictly approved by Tianjin Hospital animal ethics committee. They were fasted for 12 hours and could only drink freely water before intragastric administration of Farfarae Flos extract. Ten rats in each group were employed for eliminating data variation caused by different animal individuals. All rats in groups 1 and group 2 were orally administrated one time at two dosages of Farfarae Flos extract (carboxymethyl cellulose sodium salt (0.5%) was used to suspend the extract to prepare the administration solution 3.90 g·kg^−1 and 7.80 g·kg^−1), respectively. Rats were anesthetized with ether. The heparinized 1.5 mL polythene tube was used to collect bank plasma samples before administering dose of the extract. About 250 μL plasma samples were collected at each collecting points of 5 min, 10 min, 0.25 h, 0.50 h, 0.75 h, 1 h, 2 h, 4 h, 8 h, 12 h, 24 h, and 36 h via fossa orbitalis after dosing. All plasma samples from collecting points need to be centrifuged at 4,000 rpm for ten minutes. The supernatant fluid of centrifuged plasma samples was obtained and immediately stored at −20°C in a refrigerator until they were analyzed.
The maximum concentration (Cmax) and the time to reach the maximum concentration (Tmax) of ten target compounds were directly calculated by the real concentration-time data in the plasma. The data were expressed as mean ± SD.
Ten microliters of ISs solution (contained puerarin, ferulic acid, and artemisinin) and the plasma sample (100 μL) were added into a clean tube, and then acetonitrile (400 μL) was added to precipitate protein. After centrifugation at 14000 rpm for 10 minutes, a mild nitrogen flow was used to evaporate the liquid of the supernatant to dryness. Then, the residue was dissolved in methanol (100 μL). The solution was vortexed for 3 min, mixed for 3 minutes with ultrasound, and centrifuged for 10 min. Finally, the solution (10 μL) was used to detect concentration of ten target compounds in rat plasma.

[2] = Stability of QC samples in rat plasma (24 h, freeze-thaw, 4 weeks); format: in vitro ADME; conditions: six replicates; for 24 h stability Remain (%): 24 hours at 20°C; for Freeze-thaw stability, percent remaining: freeze-thaw cycles −20°C to 20°C; for Long stability Remain (%): stored at −80°C for 4 weeks
Method: Stock solution of 10 analytical compounds (1.00 mg·mL^−1) and three internal standards (ISs) was dissolved in methanol and placed in the refrigerator before testing. Methanol was used to prepare ferulic acid (IS1), puerarin (IS2), and artemisinin (IS3) solutions to reach a concentration of 1 μg mL^−1, respectively. A specific volume of each analyte stock solution is mixed together to prepare the standard working solution containing 10 analytes with a concentration of 10 times at LLOQ and three levels (high, medium, and low). Quality control (QC) samples for methodological validation were prepared to obtain the final concentration by adding standard working solution (10 μL) into blank plasma samples (100 μL).
Four concentration levels of ICB and ICA were 4, 12, 400, and 12000 ng mL^−1, respectively. Four concentration levels of caffeic acid were 10, 30, 1000, and 30000 ng·mL^−1, respectively.
In the stability test, 24-hour stability (The samples were placed for 24 hours at 20°C and then measured), freeze-thaw cycles (The sample was injected after the temperature changing from −20°C to 20°C), and 4 weeks stability (The sample was determined after stored at −80°C for 4 weeks) of representative QC samples were all tested. All of them were assayed with six replicates.

[3] = 3.9 g/kg, oral Farfarae Flos extract 3.9 g·kg^−1, mean ± SD
[4] = 7.8 g/kg, oral Farfarae Flos extract 7.8 g·kg^−1, mean ± SD
[5] = rat plasma, oral Farfarae Flos extract 3.9 g·kg^−1, mean ± SD
[6] = rat plasma, oral Farfarae Flos extract 7.8 g·kg^−1, mean ± SD
[7] = high concentration level (3000-30000 ng·mL^−1)
[8] = low concentration level (3-30 ng·mL^−1)
[9] = medium concentration level (100-1000 ng·mL^−1)

| Cmax [1, 3] [ng/mL] | Cmax [1, 4] [ng/mL] | Tmax [1, 5] [h] | half-life [1, 5] [h] | MRT last [1, 5] [h] | MRT inf [1, 5] [h] | Tmax [1, 6] [h] | half-life [1, 6] [h] | MRT last [1, 6] [h] | MRT inf [1, 6] [h] | AUC(0–24h) [1, 5] [ng/mL ∗ h] | AUC(0–∞) [1, 5] [ng/mL ∗ h] | AUC(0–24h) [1, 6] [ng/mL ∗ h] | AUC(0–∞) [1, 6] [ng/mL ∗ h] | 24 h stability Remain (%) [2, 7] [%] | Freeze-thaw stability, percent remaining [2, 7] [%] | Long stability Remain (%) [2, 7] [%] | Freeze-thaw stability, percent remaining [2, 8] [%] | Long stability Remain (%) [2, 8] [%] | Freeze-thaw stability, percent remaining [2, 9] [%] | Structure (SMILES) | other results |
| --- | --- | --- | --- | --- | --- | --- | --- | --- | --- | --- | --- | --- | --- | --- | --- | --- | --- | --- | --- | --- | --- |
| 177 ± 131 | > 1000 | 0.64 ± 0.2 | 1.03 ± 0.53 | 4.17 ± 1.73 | 5.16 ± 2.01 | 0.39 ± 0.2 | 1.06 ± 0.58 | 5.02 ± 2.07 | 6.23 ± 2.1 | 422.3 ± 210.5 | 585.7 ± 414.0 | 1938 ± 1401 | 2019 ± 1397 | 112 | 93.2 | 95.9 | 96.8 | 97.5 | 82.9 | O=C(/C=C/c1ccc(O)c(O)c1)O[C@H]1[C@H](O)C[C@](O)(C(=O)O)C[C@H]1O [CCLA, cryptochlorogenic acid] | 24 h stability Remain (%) [2, 8]: 98.4%; 24 h stability Remain (%) [2, 9]: 112%; Long stability Remain (%) [2, 9]: 98.6% |
| 96.3 ± 36.6 | 106 ± 24.4 | 0.23 ± 0.04 | 4.65 ± 4.89 | 6.47 ± 3.05 | 14.8 ± 8.46 | 0.21 ± 0.04 | 2.75 ± 2.71 | 4.81 ± 3.64 | 15.6 ± 10.5 | 338.9 ± 246.4 | 691.7 ± 477.5 | 473.5 ± 273.8 | 723.9 ± 468.5 | 90.7 | 85.5 | 81.1 | 101 | 113 | 87.2 | O=C(O)/C=C/c1ccc(O)c(O)c1 [Caffeic acid, caffeic acid] | 24 h stability Remain (%) [2, 8]: 81.1%; 24 h stability Remain (%) [2, 9]: 113%; Long stability Remain (%) [2, 9]: 109% |
| 47.3 ± 29.6 | 265 ± 95.5 | 0.56 ± 0.25 | 4.25 ± 6.16 | 5.79 ± 3.25 | 18.7 ± 18.6 | 0.35 ± 0.21 | 1.37 ± 0.83 | 8.8 ± 2.73 | 13.8 ± 4.86 | 187 ± 85.5 | 319.1 ± 217.3 | 823.4 ± 182.9 | 941.9 ± 204.7 | 97.6 | 93.7 | 106 | 106 | 102 | 98.6 | O=C(C=Cc1ccc(O)c(O)c1)OC1CC(O)(C(=O)O)CC(O)C1OC(=O)C=Cc1ccc(O)c(O)c1 (centres unmarked) [IAC, isochlorogenic acid C] | 24 h stability Remain (%) [2, 8]: 91.7%; 24 h stability Remain (%) [2, 9]: 105%; Long stability Remain (%) [2, 9]: 108% |
| 74 ± 52 | 486 ± 273 | 0.69 ± 0.19 | 1.61 ± 1.1 | 4.35 ± 2.74 | 7.9 ± 7.34 | 0.36 ± 0.13 | 1.49 ± 0.54 | 6.33 ± 2.33 | 8.61 ± 2.66 | 210.2 ± 126.4 | 239.3 ± 125.3 | 965.7 ± 295.9 | 1028 ± 3007 | – | 87.0 | 114 | 111 | – | 82.9 | O=C(/C=C/c1ccc(O)c(O)c1)O[C@@H]1C[C@@](O)(C(=O)O)C[C@@H](O)[C@@H]1O [NCLA, neochlorogenic acid] | – |

| Structure (SMILES) | Cmax [1, 3] [ng/mL] | Cmax [1, 4] [ng/mL] | Tmax [1, 5] [h] | half-life [1, 5] [h] | MRT last [1, 5] [h] | MRT inf [1, 5] [h] | Tmax [1, 6] [h] | half-life [1, 6] [h] | MRT last [1, 6] [h] | MRT inf [1, 6] [h] | AUC(0–24h) [1, 5] [ng/mL ∗ h] | AUC(0–∞) [1, 5] [ng/mL ∗ h] | AUC(0–24h) [1, 6] [ng/mL ∗ h] | AUC(0–∞) [1, 6] [ng/mL ∗ h] | 24 h stability Remain (%) [2, 7] [%] | Freeze-thaw stability, percent remaining [2, 7] [%] | Long stability Remain (%) [2, 7] [%] | Freeze-thaw stability, percent remaining [2, 8] [%] | Long stability Remain (%) [2, 8] [%] | Freeze-thaw stability, percent remaining [2, 9] [%] | other results |
| --- | --- | --- | --- | --- | --- | --- | --- | --- | --- | --- | --- | --- | --- | --- | --- | --- | --- | --- | --- | --- | --- |
| O=c1c(O[C@@H]2O[C@H](CO)[C@@H](O)[C@H](O)[C@H]2O)c(-c2ccc(O)c(O)c2)oc2cc(O)cc(O)c12 [Isoquercitrin, isoquercitrin] | 5.81 ± 5.72 | 10.2 ± 6.83 | 0.44 ± 0.26 | 0.88 ± 1.01 | 3.16 ± 3.46 | 7.56 ± 6.22 | 0.27 ± 0.1 | 1.19 ± 1.65 | 2.81 ± 1.79 | 9.94 ± 10.4 | 7.284 ± 5.643 | – | 16.15 ± 12.24 | 25.18 ± 13.92 | 113 | 110 | 92.3 | 104 | 92.0 | 111 | 24 h stability Remain (%) [2, 8]: 84.4%; 24 h stability Remain (%) [2, 9]: 113%; Long stability Remain (%) [2, 9]: 105% |
| C[C@@H]1O[C@@H](OC[C@H]2O[C@@H](Oc3c(-c4ccc(O)c(O)c4)oc4cc(O)cc(O)c4c3=O)[C@H](O)[C@@H](O)[C@@H]2O)[C@H](O)[C@H](O)[C@H]1O [Rutin, rutin] | 17.9 ± 17.6 | 76.7 ± 55.5 | – | 0.61 ± 0.46 | 1.95 ± 1.06 | 3.06 ± 1.3 | 0.32 ± 0.12 | – | 2.79 ± 0.24 | 6.02 ± 4.7 | 39.49 ± 59.42 | 42.77 ± 60.06 | 104.04 ± 53.04 | – | – | 116 | 89.6 | – | 97.0 | – | T max [1, 5]: 0.39 ± 0.16 h; t 1/2 [1, 6]: 0.82 ± 0.51 h |
